Measured values published in patent publication US20030229125A1, “Herbicidal substituted pyridines, their preparation, and their use as herbicides and plant growth regulators” (priority 2001, published 2003).

How the values were obtained:
[1] = tested on: Sinapis alba, Echinochloa crus-galli, Lolium multiflorum, Chrysanthemum segetum, Setaria spp., Abutilon theophrastic, Amaranthus retroflexus, Panicum miliaceum …; assay: Post-emergence effect on weeds (greenhouse pot test, visual scoring); format: in vivo, mono- and dicotyledonous weeds; details: application rate of 1 kg or less of active substance per hectare; treated at three-leaf stage; scored visually after about 3 to 4 weeks
Experimental: Seeds or rhizome pieces of mono- and dicotyledonous weeds were placed in sandy loam soil in plastic pots, covered with soil and grown in a greenhouse under good growth conditions. Three weeks after sowing, the test plants were treated at the three-leaf stage. The compounds according to the invention, formulated as wettable powders or emulsion concentrates, were sprayed, at various dosages, onto the green parts of the plants at an application rate of 600 to 800 l of water/ha (converted). After the test plants had remained in the greenhouse for about 3 to 4 weeks under optimum growth conditions, the effect of the preparations was scored visually by comparison with untreated controls. The agents according to the invention also have good herbicidal activity post-emergence against a broad spectrum of economically important weed grasses and broad-leaved weeds.

[2] = tested on: Sinapis alba, Chrysanthemum segetum, Avena sativa, Stellaria media, Echinochloa crus-galli, Lolium multiflorum, Setaria spp., Abutilon theophrasti, Amaranthus …; assay: Pre-emergence effect on weeds (greenhouse pot test, visual scoring); format: in vivo, mono- and dicotyledonous weed plants; details: application rate of 1 kg or less of active substance per hectare; visually scored after 3 to 4 weeks vs untreated controls
From the text: Seeds or rhizome pieces of mono- and dicotyledonous weed plants were placed in sandy loam soil in plastic pots and covered with soil. The compounds according to the invention, formulated in the form of wettable powders or emulsion concentrates, were then applied to the soil cover in the form of aqueous suspensions or emulsions at an application rate of 600 to 800 l of water/ha (converted), in various dosages. After the treatment, the pots were placed in a greenhouse and kept under good growth conditions for the weeds. After the test plants had emerged, the damage to the plants or the negative effect on the emergence was visually scored after a test period of 3 to 4 weeks by comparison with untreated controls. As shown by the test results, the compounds according to the invention have good herbicidal pre-emergence activity against a broad spectrum of week grasses and broad-leaved weeds.

CCN(Cc1cccc(Oc2cc(C(F)(F)F)nn2C)n1)S(C)(=O)=O [Example 4]
herbicidal activity post-emergence against weed plants [1]: very good herbicidal activity
herbicidal activity pre-emergence against weed plants [2]: very good herbicidal activity
